Laboratory results as given in PubChem BioAssay AID192 (DTP/NCI, 2004).
“And” between values parts separate entries of the source, which are not always exact repeats. Identical values can stand only once. Toxic doses and inconclusive results are not listed.

Test system: BDF1 mice, B16 melanoma ip, median survival T/C
Assay: NCI In Vivo Anticancer Drug Screen. Data for tumor model B16 Melanoma (intraperitoneal) in B6D2F1 (BDF1) mice
Settings: endpoint: median survival time, higher = longer survival
Outline: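 Transplantable tumor model; survival or tumor size measured; reported as T/C, treated over vehicle control.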

[1] = dose: 100.0 mg/kg/injection, schedule: Q01DX009 (ip), vehicle: saline
[2] = dose: 200.0 mg/kg/injection, schedule: Q01DX009 (ip), vehicle: saline
[3] = dose: 400.0 mg/kg/injection, schedule: Q01DX009 (ip), vehicle: saline
[4] = dose: 12.5 mg/kg/injection, schedule: Q01DX009 (ip), vehicle: saline with Tween-80
[5] = dose: 25.0 mg/kg/injection, schedule: Q01DX009 (ip), vehicle: saline with Tween-80
[6] = dose: 6.25 mg/kg/injection, schedule: Q01DX009 (ip), vehicle: saline
[7] = dose: 12.5 mg/kg/injection, schedule: Q01DX009 (ip), vehicle: saline
[8] = dose: 25.0 mg/kg/injection, schedule: Q01DX009 (ip), vehicle: saline
[9] = dose: 50.0 mg/kg/injection, schedule: Q01DX009 (ip), vehicle: saline
[10] = dose: 2.5 mg/kg/injection, schedule: Q01DX009 (ip), vehicle: saline with Tween-80
[11] = dose: 5.0 mg/kg/injection, schedule: Q01DX009 (ip), vehicle: saline with Tween-80
[12] = dose: 10.0 mg/kg/injection, schedule: Q01DX009 (ip), vehicle: saline with Tween-80
[13] = dose: 50.0 mg/kg/injection, schedule: Q01DX009 (ip), vehicle: saline with Tween-80
[14] = dose: 100.0 mg/kg/injection, schedule: Q01DX009 (ip), vehicle: saline with Tween-80
[15] = dose: 200.0 mg/kg/injection, schedule: Q01DX009 (ip), vehicle: saline with Tween-80

Oc1ccccc1/C=N/NC(=S)NC1CC2C=CC1C2 (centres undefined)
T/C (dose: 50.0 mg/kg/injection, schedule: Q01DX009 (ip), vehicle: olive oil, sesame oil, peanut oil): 88 % of control

NCCNc1ccc(NCCN)c2c1C(=O)c1ccccc1C2=O
T/C (dose: 4.0 mg/kg/injection, schedule: Q01DX009 (ip), vehicle: acid diluted with saline): 210 % of control
T/C (dose: 8.0 mg/kg/injection, schedule: Q01DX009 (ip), vehicle: acid diluted with saline): 218 % of control

CC/C(CC(C)CC)=N\O (centres undefined)
T/C [1]: 100 % of control
T/C [2]: 94 % of control
T/C [3]: 94 % of control

O=C(Nc1ccc([N+](=O)[O-])cc1)Nc1ccc([N+](=O)[O-])c(C(F)(F)F)c1
T/C (dose: 6.25 mg/kg/injection, schedule: Q01DX009 (ip), vehicle: saline with Tween-80): 100 % of control
T/C [4]: 100 % of control
T/C [5]: 90 % of control

Nc1ncnc2c1cnn2C1OC(CO)C(O)C1O (centres undefined)
T/C [4]: 113 % of control
T/C [5]: 109 % of control

OCC1OC(OC2(CO)OC(CO)C(O)C2O)C(O)C(O)C1O (centres undefined)
T/C (dose: 3.9 mg/kg/injection, schedule: Q01DX005 (ip), vehicle: saline): 104 % of control
T/C (dose: 7.81 mg/kg/injection, schedule: Q01DX005 (ip), vehicle: saline): 87 % of control
T/C (dose: 15.63 mg/kg/injection, schedule: Q01DX005 (ip), vehicle: saline): 105 % of control
T/C (dose: 31.25 mg/kg/injection, schedule: Q01DX005 (ip), vehicle: saline): 104 % of control
T/C (dose: 62.5 mg/kg/injection, schedule: Q01DX005 (ip), vehicle: saline): 105 % of control
T/C (dose: 125.0 mg/kg/injection, schedule: Q01DX005 (ip), vehicle: saline): 105 % of control
T/C (dose: 250.0 mg/kg/injection, schedule: Q01DX005 (ip), vehicle: saline): 109 % of control
T/C (dose: 500.0 mg/kg/injection, schedule: Q01DX005 (ip), vehicle: saline): 105 % of control
T/C (dose: 1000.0 mg/kg/injection, schedule: Q01DX005 (ip), vehicle: saline): 104 % of control
T/C (dose: 2000.0 mg/kg/injection, schedule: Q01DX005 (ip), vehicle: saline): 102 % of control

COC(=O)C1(N)CCCC1
T/C [6]: 105 % of control and 110 % of control
T/C [7]: 108 % of control and 109 % of control and 122 % of control
T/C [8]: 121 % of control and 123 % of control

CC(=O)NSCC(NC(=O)OC(C)(C)C)C(=O)O (centres undefined)
T/C [9]: 100 % of control
T/C [1]: 101 % of control
T/C [2]: 96 % of control

Clc1nc(SC2=NCCN2)c2[nH]cnc2n1
T/C (dose: 1.25 mg/kg/injection, schedule: Q01DX009 (ip), vehicle: saline with Tween-80): 93 % of control
T/C [10]: 97 % of control
T/C [11]: 101 % of control
T/C [12]: 101 % of control and 103 % of control

O=C(NP(=O)(N1CC1)N1CC1)c1cc(I)ccc1I
T/C (dose: 1.0 mg/kg/injection, schedule: Q02DX009 (ip), vehicle: saline with Tween-80): 100 % of control
T/C (dose: 1.0 mg/kg/injection, schedule: Q02DX009 (ip), vehicle: saline): 104 % of control
T/C (dose: 2.0 mg/kg/injection, schedule: Q02DX009 (ip), vehicle: saline with Tween-80): 106 % of control
T/C (dose: 2.0 mg/kg/injection, schedule: Q02DX009 (ip), vehicle: saline): 107 % of control
T/C (dose: 4.0 mg/kg/injection, schedule: Q02DX009 (ip), vehicle: saline with Tween-80): 93 % of control
T/C (dose: 4.0 mg/kg/injection, schedule: Q02DX009 (ip), vehicle: saline): 98 % of control
T/C (dose: 8.0 mg/kg/injection, schedule: Q02DX009 (ip), vehicle: saline with Tween-80): 120 % of control
T/C (dose: 8.0 mg/kg/injection, schedule: Q02DX009 (ip), vehicle: saline): 112 % of control
T/C (dose: 16.0 mg/kg/injection, schedule: Q02DX009 (ip), vehicle: saline): 116 % of control
T/C (dose: 32.0 mg/kg/injection, schedule: Q02DX009 (ip), vehicle: saline): 107 % of control
T/C (dose: 64.0 mg/kg/injection, schedule: Q02DX009 (ip), vehicle: saline with Tween-80): 92 % of control
T/C (dose: 64.0 mg/kg/injection, schedule: Q02DX009 (ip), vehicle: saline): 101 % of control

C(=NC1CCCCC1)c1c[nH]c2ccccc12
T/C [13]: 100 % of control
T/C [14]: 97 % of control
T/C [15]: 97 % of control

CCCCCCCCCCCCCC(=O)OC12CC(C)C3(O)C(C=C(CO)C(O)C4(O)C(=O)C(C)=CC43)C1C2(C)C (centres undefined)
T/C (dose: 0.01 mg/kg/injection, schedule: Q01DX009 (ip), vehicle: saline + alcohol): 99 % of control
T/C (dose: 0.03 mg/kg/injection, schedule: Q01DX009 (ip), vehicle: saline + alcohol): 107 % of control
T/C (dose: 0.06 mg/kg/injection, schedule: Q01DX009 (ip), vehicle: saline + alcohol): 104 % of control
T/C (dose: 0.12 mg/kg/injection, schedule: Q01DX009 (ip), vehicle: saline + alcohol): 94 % of control
T/C (dose: 0.13 mg/kg/injection, schedule: Q01DX009 (ip), vehicle: saline + alcohol): 100 % of control

Cc1ccc(C(=N)c2ccccc2Cc2cccc3ccccc23)c(C)c1
T/C [13]: 88 % of control

CCCCN(C)N=Nc1c(C(N)=O)n[nH]c1C
T/C [4]: 110 % of control
T/C [5]: 105 % of control
T/C [13]: 122 % of control
T/C (dose: 50.0 mg/kg/injection, schedule: Q04DX003 (ip), vehicle: saline with Tween-80): 100 % of control
T/C (dose: 100.0 mg/kg/injection, schedule: Q04DX003 (ip), vehicle: saline with Tween-80): 105 % of control
T/C (dose: 200.0 mg/kg/injection, schedule: Q04DX003 (ip), vehicle: saline with Tween-80): 113 % of control

O=C1NC(c2ccccc2)(c2ccccc2)C(=O)N1CCN(CCCl)CCCl
T/C (dose: 1.3 mg/kg/injection, schedule: Q01DX009 (ip), vehicle: Klucel (hydroxypropylcellulose) (HPC)): 93 % of control
T/C (dose: 2.0 mg/kg/injection, schedule: Q01DX009 (ip), vehicle: Klucel (hydroxypropylcellulose) (HPC)): 105 % of control
T/C (dose: 3.12 mg/kg/injection, schedule: Q01DX009 (ip), vehicle: Klucel (hydroxypropylcellulose) (HPC)): 160 % of control
T/C (dose: 6.25 mg/kg/injection, schedule: Q01DX009 (ip), vehicle: Klucel (hydroxypropylcellulose) (HPC)): 161 % of control
T/C (dose: 25.0 mg/kg/injection, schedule: Q01DX009 (ip), vehicle: Klucel (hydroxypropylcellulose) (HPC)): 103 % of control
T/C (dose: 50.0 mg/kg/injection, schedule: Q01DX009 (ip), vehicle: Klucel (hydroxypropylcellulose) (HPC)): 153 % of control

C=C1C(=O)OC2C1C(OC(=O)/C(C)=C/COC(C)=O)CC1(CO1)C1C(O)C=C(C)C21 (centres undefined)
T/C (dose: 6.25 mg/kg/injection, schedule: Q01DX009 (ip), vehicle: other): 103 % of control
T/C (dose: 12.5 mg/kg/injection, schedule: Q01DX009 (ip), vehicle: other): 100 % of control
T/C (dose: 25.0 mg/kg/injection, schedule: Q01DX009 (ip), vehicle: other): 104 % of control

CCN1C(=O)CC2(CCN(C)CC2)C1=O
T/C (dose: 0.78 mg/kg/injection, schedule: Q01DX009 (ip), vehicle: saline): 122 % of control
T/C (dose: 1.56 mg/kg/injection, schedule: Q01DX009 (ip), vehicle: saline): 117 % of control
T/C (dose: 3.12 mg/kg/injection, schedule: Q01DX009 (ip), vehicle: saline): 103 % of control
T/C [6]: 108 % of control
T/C [7]: 108 % of control
T/C [8]: 102 % of control
T/C [9]: 98 % of control
T/C [1]: 96 % of control

CC1(C)C2CCC([CH2][Hg][Cl])C1C2 (centres undefined)
T/C [10]: 87 % of control
T/C [11]: 103 % of control
T/C [12]: 87 % of control
T/C (dose: 20.0 mg/kg/injection, schedule: Q01DX009 (ip), vehicle: saline with Tween-80): 96 % of control

CC(=O)C1=C(C)NC(C)=C(C(C)=O)C1C
T/C [13]: 100 % of control
T/C [14]: 95 % of control
T/C [15]: 102 % of control

CC1OC(Oc2c(-c3cc(O)c(O)c(O)c3)oc3cc(O)cc(O)c3c2=O)C(O)C(O)C1O (centres undefined)
T/C [14]: 112 % of control
T/C [15]: 113 % of control
T/C (dose: 400.0 mg/kg/injection, schedule: Q01DX009 (ip), vehicle: saline with Tween-80): 90 % of control

NCC1OC(OC2C(CO)OC(OC3C(O)C(N)CC(N)C3OC3OC(CO)C(O)C(O)C3N)C2O)C(N)C(O)C1O (centres undefined)
T/C [9]: 114 % of control
T/C [1]: 108 % of control
T/C [2]: 111 % of control
T/C [3]: 112 % of control
